Calls of active or inactive are those of the source. The rule behind the calls is not given here.
What was measured:
HaCaT [1] = assay: Increase in serine palmitoyltransferase 2 mRNA expression in human HaCaT cells by RT-PCR relative to untreated control; format: functional
HaCaT [2] = assay: Increase in serine palmitoyltransferase protein expression in human HaCaT cells at 30 ug/mL by Western blot relative to untreated control; format: functional
HaCaT [3] = assay: Increase in serine palmitoyltransferase protein expression in human HaCaT cells at 100 ug/mL by Western blot relative to untreated control; format: functional
HaCaT [4] = assay: Effect on p65 nuclear expression in human HaCaT cells at 100 ug/mL after 12 hrs by Western blot; format: functional, cell-based
HaCaT [5] = assay: Activation of NF-kappaB expressed in human HaCaT cells by luciferase reporter gene assay; format: cell-based
HaCaT [6] = assay: Cytotoxicity against human HaCaT cells at 50 to 200 ug/mL by MTT assay; format: cell-based
HaCaT [7] = assay: Increase in serine palmitoyltransferase 1 mRNA expression in human HaCaT cells by RT-PCR relative to untreated control; format: functional

Row | SMILES | Activity (HaCaT [1]) [%] | Activity (HaCaT [2]) [%] | Activity (HaCaT [3]) [%] | Activity (HaCaT [4]) | Activity (HaCaT [5]) | Activity (HaCaT [6]) | Activity (HaCaT [7]) [%]
1 | COC(=O)[C@@H](Cc1ccc(O)c(O)c1)OC(=O)/C=C/c1ccc(O)c2c1[C@H](C(=O)O)[C@@H](c1ccc(O)c(O)c1)O2 | 159 | 20.2 | 81 | inactive | inactive | Non-toxic | 148
2 | O=C(/C=C/c1ccc(O)c2c1[C@H](C(=O)O)[C@@H](c1ccc(O)c(O)c1)O2)O[C@H](Cc1ccc(O)c(O)c1)C(=O)O [LITHOSPERMIC ACID] | 151 | 21.7 | 55 | inactive | inactive | Non-toxic | 121
3 | NC(=O)c1cccnc1 [NIACINAMIDE] | 128 | – | 57.3 | – | – | – | 127
4 | COC(=O)[C@H]1c2c(/C=C/C(=O)O[C@H](Cc3ccc(O)c(O)c3)C(=O)O)ccc(O)c2O[C@@H]1c1ccc(O)c(O)c1 | 139 | 8.9 | 23 | inactive | inactive | Non-toxic | 139

— ChEMBL document CHEMBL1153916, “Lithospermic acid derivatives from Lithospermum erythrorhizon increased expression of serine palmitoyltransferase in human HaCaT cells” (Bioorg Med Chem Lett, 2009)
